Values quoted from earlier work as cited in PubChem BioAssay AID1259409 (Chemical Carcinogenesis Research Information System (CCRIS), 2018).

System: rodent chemically induced tumor inhibition, incidence and multiplicity
Assay: CCRIS tumor inhibitor studies
Conditions: Route [Inhibitor]: ORAL, Species: RAT

For `C[C@]12CC[C@H](O)CC1=CC[C@@H]1[C@@H]2CC[C@]2(C)C(=O)CC[C@@H]12`, the “tumour outcome (control, treated, inhibition, significance)” value (Carcinogen: CYPROTERONE ACETATE [427-51-0], TESTOSTERONE PROPIONATE [57-85-2], N-METHYL-N-NITROSOUREA [684-93-4], Carcinogen: CYPROTERONE ACETATE [427-51-0], TESTOSTERONE PROPIONATE [57-85-2], N-METHYL-N-NITROSOUREA [684-93-4], Dose [Inhibitor]: 1000 MG/KG IN DIET FOR 13 WK BEGINNING 1 WK PRIOR TO MNU DOSE (STUDY DURATION: 14 MONTHS), Strain/Sex: WISTAR-UNILEVER/MALE, Target Tissue: Type of Lesion: PROSTATE AND SEMINAL VESICLE: ADENOCARCINOMA OR CARCINOSARCOMA, Dose [Carcinogen]: 50 MG/KB BW CA BY GAVAGE 1X/D FOR 21 D, 100 MG/KG BW TP SC 1X/D FOR 3 D BEGINNING 1 D POST LAST CA DOSE, 50 MG/KG BW MNU, Dose [Carcinogen]: 50 MG/KB BW CA BY GAVAGE 1X/D FOR 21 D, 100 MG/KG BW TP SC 1X/D FOR 3 D BEGINNING 1 D POST LAST CA DOSE, 50 MG/KG BW MNU, Promoter: TESTOSTERONE (CRYSTALLINE)) is given as 27/32 (84%), 27/34 (79%), 6%, not significant, the “tumour outcome (control, treated, inhibition, significance)” value (Carcinogen: CYPROTERONE ACETATE [427-51-0], TESTOSTERONE PROPIONATE [57-85-2], N-METHYL-N-NITROSOUREA [684-93-4], Carcinogen: CYPROTERONE ACETATE [427-51-0], TESTOSTERONE PROPIONATE [57-85-2], N-METHYL-N-NITROSOUREA [684-93-4], Dose [Inhibitor]: 2000 MG/KG IN DIET FOR 13 WK BEGINNING 1 WK PRIOR TO MNU DOSE (STUDY DURATION: 14 MONTHS), Strain/Sex: WISTAR-UNILEVER/MALE, Target Tissue: Type of Lesion: PROSTATE AND SEMINAL VESICLE: ADENOCARCINOMA OR CARCINOSARCOMA, Dose [Carcinogen]: 50 MG/KB BW CA BY GAVAGE 1X/D FOR 21 D, 100 MG/KG BW TP SC 1X/D FOR 3 D BEGINNING 1 D POST LAST CA DOSE, 30 MG/KG BW MNU, Dose [Carcinogen]: 50 MG/KB BW CA BY GAVAGE 1X/D FOR 21 D, 100 MG/KG BW TP SC 1X/D FOR 3 D BEGINNING 1 D POST LAST CA DOSE, 30 MG/KG BW MNU, Promoter: TESTOSTERONE (CRYSTALLINE)) is given as 24/30 (80%), 14/29 (48%), 40%, p<0.05 and the “tumour outcome (control, treated, inhibition, significance)” value (Carcinogen: CYPROTERONE ACETATE [427-51-0], TESTOSTERONE PROPIONATE [57-85-2], N-METHYL-N-NITROSOUREA [684-93-4], Carcinogen: CYPROTERONE ACETATE [427-51-0], TESTOSTERONE PROPIONATE [57-85-2], N-METHYL-N-NITROSOUREA [684-93-4], Dose [Inhibitor]: 2000 MG/KG IN DIET FOR 13 WK BEGINNING 1 WK PRIOR TO MNU DOSE (STUDY DURATION: 14 MONTHS), Strain/Sex: WISTAR-UNILEVER/MALE, Target Tissue: Type of Lesion: PROSTATE AND SEMINAL VESICLE: ADENOCARCINOMA OR CARCINOSARCOMA, Dose [Carcinogen]: 50 MG/KB BW CA BY GAVAGE 1X/D FOR 21 D, 100 MG/KG BW TP SC 1X/D FOR 3 D BEGINNING 1 D POST LAST CA DOSE, 50 MG/KG BW MNU, Dose [Carcinogen]: 50 MG/KB BW CA BY GAVAGE 1X/D FOR 21 D, 100 MG/KG BW TP SC 1X/D FOR 3 D BEGINNING 1 D POST LAST CA DOSE, 50 MG/KG BW MNU, Promoter: TESTOSTERONE (CRYSTALLINE)) is given as 27/32 (84%), 22/32 (69%), 18%, not significant. For the same molecule, the “tumour outcome (control, treated, inhibition, significance)” value (Carcinogen: CYPROTERONE ACETATE [427-51-0], TESTOSTERONE PROPIONATE [57-85-2], N-METHYL-N-NITROSOUREA [684-93-4], Carcinogen: CYPROTERONE ACETATE [427-51-0], TESTOSTERONE PROPIONATE [57-85-2], N-METHYL-N-NITROSOUREA [684-93-4], Dose [Inhibitor]: 2000 MG/KG IN DIET FOR 13 WK BEGINNING 20 WK POST MNU DOSE (STUDY DURATION: 14 MONTHS), Strain/Sex: WISTAR-UNILEVER/MALE, Target Tissue: Type of Lesion: PROSTATE AND SEMINAL VESICLE: ADENOCARCINOMA OR CARCINOSARCOMA, Dose [Carcinogen]: 50 MG/KB BW CA BY GAVAGE 1X/D FOR 21 D, 100 MG/KG BW TP SC 1X/D FOR 3 D BEGINNING 1 D POST LAST CA DOSE, 30 MG/KG BW MNU, Dose [Carcinogen]: 50 MG/KB BW CA BY GAVAGE 1X/D FOR 21 D, 100 MG/KG BW TP SC 1X/D FOR 3 D BEGINNING 1 D POST LAST CA DOSE, 30 MG/KG BW MNU, Promoter: TESTOSTERONE (CRYSTALLINE)) was 24/30 (80%), 15/30 (50%), 38%, p<0.05, the “tumour outcome (control, treated, inhibition, significance)” value (Carcinogen: CYPROTERONE ACETATE [427-51-0], TESTOSTERONE PROPIONATE [57-85-2], N-METHYL-N-NITROSOUREA [684-93-4], Carcinogen: CYPROTERONE ACETATE [427-51-0], TESTOSTERONE PROPIONATE [57-85-2], N-METHYL-N-NITROSOUREA [684-93-4], Dose [Inhibitor]: 2000 MG/KG IN DIET FOR 13 WK BEGINNING 40WK POST MNU DOSE (STUDY DURATION: 14 MONTHS), Strain/Sex: WISTAR-UNILEVER/MALE, Target Tissue: Type of Lesion: PROSTATE AND SEMINAL VESICLE: ADENOCARCINOMA OR CARCINOSARCOMA, Dose [Carcinogen]: 50 MG/KB BW CA BY GAVAGE 1X/D FOR 21 D, 100 MG/KG BW TP SC 1X/D FOR 3 D BEGINNING 1 D POST LAST CA DOSE, 30 MG/KG BW MNU, Dose [Carcinogen]: 50 MG/KB BW CA BY GAVAGE 1X/D FOR 21 D, 100 MG/KG BW TP SC 1X/D FOR 3 D BEGINNING 1 D POST LAST CA DOSE, 30 MG/KG BW MNU, Promoter: TESTOSTERONE (CRYSTALLINE)) was 24/30 (80%), 18/30 (60%), 25%, not significant and the “tumour outcome (control, treated, inhibition, significance)” value (Carcinogen: DIETHYLNITROSAMINE, 55-18-5, ACETYLAMINOFLUORENE, 53-96-3, Carcinogen: DIETHYLNITROSAMINE, 55-18-5, ACETYLAMINOFLUORENE, 53-96-3, Dose [Inhibitor]: 0, 0.6% IN DIET FOR A MAXIMUM OF 15 WK BEGINNING 15 WK POST INITIATION (STUDY DURATION: 56 WK), Strain/Sex: F344/MALE, Target Tissue: Type of Lesion: LIVER: CARCINOMA, Dose [Carcinogen]: 150 MG/KG DEN ONCE THEN 2 WK LATER 0.02% AAF IN DIET FOR 15 D WITH A PARTIAL HEPATECTOMY MIDWAY THROUGH TREATMENT, Promoter: NONE USED) was 8/8 (100%), 1/4 (25%), 75%, not calculated. For the same molecule, the “tumour outcome (control, treated, inhibition, significance)” value (Carcinogen: DIETHYLNITROSAMINE, 55-18-5, N-METHYL-N-NITROSOUREA, 684-93-5, N-BUTYL-N-(4-HYDROXYBUTYL)NITROSAMINE, 3817-11-6, 1,2-DIM, Carcinogen: DIETHYLNITROSAMINE, 55-18-5, N-METHYL-N-NITROSOUREA, 684-93-5, N-BUTYL-N-(4-HYDROXYBUTYL)NITROSAMINE, 3817-11-6, 1,2-DIM, Dose [Inhibitor]: 0, 0.3% IN DIET FOR 23 WK BEGINNING 1 WK POST CARCINOGEN TREATMENT (STUDY DURATION: 28 WK), Strain/Sex: F344/MALE, Target Tissue: Type of Lesion: LARGE INTESTINE: ADENOMA, Dose [Carcinogen]: 100 MG/KG BW DEN ONCE, 20 MG/KG BW MNU ONCE ON DAYS 6,9, AND 12, 0.05% BBN IN DRINKING WATER FOR FIRST TWO WK, 40 MG/KG, Dose [Carcinogen]: 100 MG/KG BW DEN ONCE, 20 MG/KG BW MNU ONCE ON DAYS 6,9, AND 12, 0.05% BBN IN DRINKING WATER FOR FIRST TWO WK, 40 MG/KG, Promoter: NONE USED) was 3/20 (15%), 4/20 (20%), -33%, not significant.
